# Experimental data reported in ChEMBL document CHEMBL4304773, “Nitroimidazole-containing compounds and their antibacterial and antitubercular activities” (2019).
# Experiments:
# Type in all cases: functional
# [1] = tested on: Escherichia coli; test: Antibacterial activity against Escherichia coli
# [2] = tested on: Pseudomonas aeruginosa; test: Antibacterial activity against Pseudomonas aeruginosa
# [3] = tested on: Enterococcus faecalis; test: Antibacterial activity against Enterococcus faecalis
# [4] = tested on: Staphylococcus aureus; test: Antibacterial activity against Staphylococcus aureus ATCC 25923
# [5] = tested on: Staphylococcus aureus; test: Antibacterial activity against Staphylococcus aureus ATCC 29213
# [6] = tested on: Staphylococcus aureus; test: Antibacterial activity against methicillin-resistant Staphylococcus aureus N315
# [7] = tested on: Pseudomonas aeruginosa; test: Antibacterial activity against Pseudomonas aeruginosa ATCC 27853
# [8] = tested on: Acinetobacter baumannii; test: Antibacterial activity against Acinetobacter baumannii
# [9] = tested on: Escherichia coli; test: Antibacterial activity against Escherichia coli ATCC 25922
# [10] = tested on: Klebsiella pneumoniae; test: Antibacterial activity against Klebsiella pneumoniae
# [11] = tested on: Escherichia coli; test: Antibacterial activity against Escherichia coli infected in mouse
# [12] = tested on: Staphylococcus aureus; test: Antibacterial activity against Staphylococcus aureus ATCC 25923 after 24 hrs by NCCLS method; details: ATCC 25923, 24 h
# [13] = tested on: Bacillus subtilis; test: Antibacterial activity against Bacillus subtilis ATCC 530 after 24 hrs by NCCLS method; details: ATCC 530, 24 h
# [14] = tested on: Escherichia coli; test: Antibacterial activity against Escherichia coli ATCC 25922 after 24 hrs by NCCLS method; details: ATCC 25922, 24 h
# [15] = tested on: Pseudomonas aeruginosa; test: Antibacterial activity against Pseudomonas aeruginosa ATCC 27853 after 24 hrs by NCCLS method; details: ATCC 27853, 24 h
# [16] = tested on: Staphylococcus aureus; test: Antibacterial activity against Staphylococcus aureus
# [17] = tested on: Streptococcus pyogenes; test: Antibacterial activity against Streptococcus pyogenes
# [18] = tested on: Klebsiella aerogenes; test: Antibacterial activity against Klebsiella aerogenes
structure (smiles),measurement,setting,value
C=CCN1CCN(c2ccc3c4c(cccc24)C(=O)N(CC(O)Cn2c([N+](=O)[O-])cnc2C)C3=O)CC1 (configuration not stated),MIC,[1],13 to 1020 µM
same,MIC,[2],13 to 1020 µM
same,MIC,[3],13 to 1020 µM
same,MIC,[4],13 to 1020 µM
same,MIC,[5],13 to 1020 µM
same,MIC,[6],13 to 1020 µM
same,MIC,[7],13 to 1020 µM
same,MIC,[8],13 to 1020 µM
same,MIC,[9],13 to 1020 µM
same,MIC,[10],13 to 1020 µM
CCn1cc(C(=O)OC)c(=O)c2cc(F)c(N3CCN(CCn4c([N+](=O)[O-])cnc4C)CC3)cc21,ED50,[11],3.5 to 13.2 mg/kg
Cc1nn(-c2ccccc2)c(Oc2ccccc2)c1/C=N/NC(=O)Cn1c([N+](=O)[O-])cnc1C,MIC,[12],3.12 to 50 µg/mL
same,MIC,[13],3.12 to 50 µg/mL
same,MIC,[14],3.12 to 50 µg/mL
same,MIC,[15],3.12 to 50 µg/mL
Cc1ccc(-n2nc(C)c(/C=N/NC(=O)Cn3c([N+](=O)[O-])cnc3C)c2Oc2ccc(Cl)cc2)cc1,MIC,[12],3.12 to 50 µg/mL
same,MIC,[13],3.12 to 50 µg/mL
same,MIC,[14],3.12 to 50 µg/mL
same,MIC,[15],3.12 to 50 µg/mL
Cc1ccc(-n2nc(C)c(/C=N/NC(=O)Cn3c([N+](=O)[O-])cnc3C)c2Oc2ccccc2)cc1,MIC,[12],3.12 to 50 µg/mL
same,MIC,[13],3.12 to 50 µg/mL
same,MIC,[14],3.12 to 50 µg/mL
same,MIC,[15],3.12 to 50 µg/mL
Cc1ncc([N+](=O)[O-])n1CC(O)CN1C(=O)c2cccc3c(N4CCN(CC#N)CC4)ccc(c23)C1=O (configuration not stated),MIC,[1],13 to 1020 µM
same,MIC,[2],13 to 1020 µM
same,MIC,[3],13 to 1020 µM
same,MIC,[4],13 to 1020 µM
same,MIC,[5],13 to 1020 µM
same,MIC,[6],13 to 1020 µM
same,MIC,[7],13 to 1020 µM
same,MIC,[8],13 to 1020 µM
same,MIC,[9],13 to 1020 µM
same,MIC,[10],13 to 1020 µM
CCCCN1CCN(c2ccc3c4c(cccc24)C(=O)N(CC(O)Cn2c([N+](=O)[O-])cnc2C)C3=O)CC1 (configuration not stated),MIC,[1],13 to 1020 µM
same,MIC,[2],13 to 1020 µM
same,MIC,[3],13 to 1020 µM
same,MIC,[4],13 to 1020 µM
same,MIC,[5],13 to 1020 µM
same,MIC,[6],13 to 1020 µM
same,MIC,[7],13 to 1020 µM
same,MIC,[8],13 to 1020 µM
same,MIC,[9],13 to 1020 µM
same,MIC,[10],13 to 1020 µM
Cc1nc([N+](=O)[O-])cn1Cc1nn(CNc2ccc(Br)cc2)c(=S)o1,MIC,[16],184 to 2890 µM
same,MIC,[17],184 to 2890 µM
Cc1nc([N+](=O)[O-])cn1Cc1nn(CNc2ccc(F)cc2)c(=S)o1,MIC,[16],184 to 2890 µM
same,MIC,[17],184 to 2890 µM
Cc1nn(-c2ccccc2)c(Oc2ccc(F)cc2)c1/C=N/NC(=O)Cn1c([N+](=O)[O-])cnc1C,MIC,[12],3.12 to 50 µg/mL
same,MIC,[13],3.12 to 50 µg/mL
same,MIC,[14],3.12 to 50 µg/mL
same,MIC,[15],3.12 to 50 µg/mL
CCCCCCCCCCN1CCN(c2ccc3c4c(cccc24)C(=O)N(CC(O)Cn2c([N+](=O)[O-])cnc2C)C3=O)CC1 (configuration not stated),MIC,[1],13 to 210 µM
same,MIC,[2],13 to 210 µM
same,MIC,[18],13 µM
same,MIC,[3],13 to 210 µM
same,MIC,[4],13 to 210 µM
same,MIC,[5],13 to 210 µM
same,MIC,[6],13 to 210 µM
same,MIC,[7],13 to 210 µM
same,MIC,[8],13 to 210 µM
same,MIC,[9],13 to 210 µM
same,MIC,[10],13 to 210 µM
Cc1ccc(Oc2c(/C=N/NC(=O)Cn3c([N+](=O)[O-])cnc3C)c(C)nn2-c2ccccc2)cc1,MIC,[12],3.12 to 50 µg/mL
same,MIC,[13],3.12 to 50 µg/mL
same,MIC,[14],3.12 to 50 µg/mL
same,MIC,[15],3.12 to 50 µg/mL
CCOC(=O)c1cn(CC)c2nc(N3CCN(CCn4c([N+](=O)[O-])cnc4C)CC3)c(F)cc2c1=O,ED50,[11],3.5 to 13.2 mg/kg
COc1ccc(Oc2c(/C=N/NC(=O)Cn3c([N+](=O)[O-])cnc3C)c(C)nn2-c2ccc(C)cc2)cc1,MIC,[12],3.12 to 50 µg/mL
same,MIC,[13],3.12 to 50 µg/mL
same,MIC,[14],3.12 to 50 µg/mL
same,MIC,[15],3.12 to 50 µg/mL
Cc1ncc([N+](=O)[O-])n1CC(O)CN1C(=O)c2cccc3c(N4CCN(CCO)CC4)ccc(c23)C1=O (configuration not stated),MIC,[1],13 to 1020 µM
same,MIC,[2],13 to 1020 µM
same,MIC,[3],13 to 1020 µM
same,MIC,[4],13 to 1020 µM
same,MIC,[5],13 to 1020 µM
same,MIC,[6],13 to 1020 µM
same,MIC,[7],13 to 1020 µM
same,MIC,[8],13 to 1020 µM
same,MIC,[9],13 to 1020 µM
same,MIC,[10],13 to 1020 µM
CCOC(=O)c1cn(CC)c2cc(N3CCN(CCn4c([N+](=O)[O-])cnc4C)CC3)c(F)cc2c1=O,ED50,[11],3.5 to 13.2 mg/kg
CCN1CCN(Cn2nc(Cn3cc([N+](=O)[O-])nc3C)oc2=S)CC1,MIC,[16],184 to 2890 µM
same,MIC,[17],184 to 2890 µM
CCN1CCN(c2ccc3c4c(cccc24)C(=O)N(CC(O)Cn2c([N+](=O)[O-])cnc2C)C3=O)CC1 (configuration not stated),MIC,[1],13 to 1020 µM
same,MIC,[2],13 to 1020 µM
same,MIC,[3],13 to 1020 µM
same,MIC,[4],13 to 1020 µM
same,MIC,[5],13 to 1020 µM
same,MIC,[6],13 to 1020 µM
same,MIC,[7],13 to 1020 µM
same,MIC,[8],13 to 1020 µM
same,MIC,[9],13 to 1020 µM
same,MIC,[10],13 to 1020 µM
Cc1nc([N+](=O)[O-])cn1Cc1nn(CNc2ccc(-c3ccccc3)cc2)c(=S)o1,MIC,[16],184 to 2890 µM
same,MIC,[17],184 to 2890 µM
Cc1cc([N+](=O)[O-])ccc1NCn1nc(Cn2cc([N+](=O)[O-])nc2C)oc1=S,MIC,[16],184 to 2890 µM
same,MIC,[17],184 to 2890 µM
Cc1nc([N+](=O)[O-])cn1Cc1nn(CNc2ccc(Cl)cc2)c(=S)o1,MIC,[16],184 to 2890 µM
same,MIC,[17],184 to 2890 µM
CCn1cc(C(=O)O)c(=O)c2cc(F)c(N3CCN(CCn4c([N+](=O)[O-])cnc4C)CC3)cc21,ED50,[11],2.56 to 3.88 mg/kg
COC(=O)c1cn(C2CC2)c2cc(N3CCN(CCn4c([N+](=O)[O-])cnc4C)CC3)c(F)cc2c1=O,ED50,[11],3.5 to 13.2 mg/kg
